Where two headings read alike, the source gives them in different places.
Columns and labels:
[1] = molecular target: T1, HMG-CoA reductase (Homo sapiens, UniProt P04035); conditions: cited from earlier work
T1 sequence (P04035 1-888): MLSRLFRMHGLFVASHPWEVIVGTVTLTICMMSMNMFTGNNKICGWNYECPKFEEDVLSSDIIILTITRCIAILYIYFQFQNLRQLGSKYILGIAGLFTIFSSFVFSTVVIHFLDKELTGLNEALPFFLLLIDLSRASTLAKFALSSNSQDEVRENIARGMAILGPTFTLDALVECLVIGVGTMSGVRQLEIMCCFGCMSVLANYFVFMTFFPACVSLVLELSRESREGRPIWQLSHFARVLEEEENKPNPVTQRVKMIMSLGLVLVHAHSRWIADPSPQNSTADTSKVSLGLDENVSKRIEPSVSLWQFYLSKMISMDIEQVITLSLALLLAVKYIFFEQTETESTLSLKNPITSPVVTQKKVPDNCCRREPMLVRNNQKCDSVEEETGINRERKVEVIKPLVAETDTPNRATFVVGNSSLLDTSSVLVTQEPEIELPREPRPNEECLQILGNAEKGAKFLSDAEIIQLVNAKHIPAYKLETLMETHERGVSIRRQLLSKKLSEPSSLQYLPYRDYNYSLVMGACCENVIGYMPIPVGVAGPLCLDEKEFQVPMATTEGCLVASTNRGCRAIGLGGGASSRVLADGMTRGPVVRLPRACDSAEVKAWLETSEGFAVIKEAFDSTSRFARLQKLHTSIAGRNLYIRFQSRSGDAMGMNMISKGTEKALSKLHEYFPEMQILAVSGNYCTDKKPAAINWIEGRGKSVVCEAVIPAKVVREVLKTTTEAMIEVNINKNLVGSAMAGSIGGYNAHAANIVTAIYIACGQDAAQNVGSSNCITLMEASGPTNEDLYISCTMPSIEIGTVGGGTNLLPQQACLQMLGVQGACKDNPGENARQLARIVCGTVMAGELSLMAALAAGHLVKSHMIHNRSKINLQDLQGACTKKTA

[2] = Pharmacokinetic analysis after a single oral dose to male dogs (plasma atorvastatin, metabolites, gemcabene); assay type: in vivo, beagle dogs; conditions: administered in the absence of atorvastatin calcium versus with atorvastatin calcium (FIG. 15)
[3] = test system: hypercholesterolemic human subjects; conditions: cited from earlier work
[4] = in vivo; cited from earlier work

## CC(C)c1c(C(=O)Nc2ccccc2O)c(-c2ccccc2)c(-c2ccc(F)cc2)n1CCC(O)CC(O)CC(=O)O (centres unmarked) [2-hydroxy-atorvastatin acid]
[1]
  pharmacological activity (inhibitory activity on HMG-CoA reductase): pharmacologically equipotent to parent atorvastatin
[1]; listed as 2-hydroxy-atrovastatin
  pharmacological activity (inhibitory activity on HMG-CoA reductase): active towards HMG-CoA reductase

## CC(C)c1c(C(=O)Nc2ccccc2O)c(-c2ccccc2)c(-c2ccc(F)cc2)n1CCC1CC(O)CC(=O)O1 (centres unmarked) [2-hydroxy-atorvastatin lactone]
[1]
  pharmacological activity (inhibitory activity on HMG-CoA reductase): pharmacologically inactive

## CC(C)c1c(C(=O)Nc2ccc(O)cc2)c(-c2ccccc2)c(-c2ccc(F)cc2)n1CC[C@@H](O)C[C@@H](O)CC(=O)O [4-hydroxy-atorvastatin acid]
[1]
  pharmacological activity (inhibitory activity on HMG-CoA reductase): pharmacologically equipotent to parent atorvastatin
[1]; listed as 4-hydroxy-atorvastatin
  pharmacological activity (inhibitory activity on HMG-CoA reductase): active towards HMG-CoA reductase

## CC(C)c1c(C(=O)Nc2ccc(O)cc2)c(-c2ccccc2)c(-c2ccc(F)cc2)n1CCC1CC(O)CC(=O)O1 (centres unmarked) [4-hydroxy-atorvastatin lactone]
[1]
  pharmacological activity (inhibitory activity on HMG-CoA reductase): pharmacologically inactive

## CC(C)c1c(C(=O)Nc2ccccc2)c(-c2ccccc2)c(-c2ccc(F)cc2)n1CC[C@@H]1C[C@@H](O)CC(=O)O1 [atorvastatin lactone]
[1]
  pharmacological activity (inhibitory activity on HMG-CoA reductase): pharmacologically inactive

## CC(C)(CCCCOCCCCC(C)(C)C(=O)O)C(=O)O [gemcabene calcium, 6,6′-oxybis(2,2-dimethylhexanoic acid)]
[2]
  pharmacokinetic profile of gemcabene: essentially the same
[3]; patients having type IIb hyperlipidemia, certain doses with a statin, versus either alone
  triglycerides: surprising ability to lower triglycerides
[3]; patients on a stable dose of statin not able to reach the target LDL-C goal
  LDL-C levels: further reduce LDL-C levels
[3]; separate administration with a statin, versus a statin alone
  plasma levels of LDL cholesterol (LDL-C): significantly reduce
[3]; some doses with a statin, hypercholesterolemic human subjects with elevated fibrinogen levels
  fibrinogen: lower fibrinogen
[3]; with a statin, versus statin treatment alone
  c-reactive protein: reduce c-reactive protein to an extent greater than the statin treatment alone
[4]
  effect on the pharmacokinetics of simvastatin and atorvastatin: not to significantly affect

— US20190008779A1, “GEMCABENE COMPOSITIONS AND METHODS OF USE THEREOF” (GEMPHIRE THERAPEUTICS INC., priority 2017, published 2019)
